These results are taken from patent US20240131004A1, “FUNCTIONALIZED 1,3-BENZENE DIOLS AND THEIR METHOD OF USE FOR THE TREATMENT OF INFLAMMATION AND PAIN” (KANNALIFE SCIENCES, INC., priority 2021, published 2024).

“Also recorded” adds a separate entry of the source.

In one experiment the target is T1, human GPR55 (Homo sapiens, UniProt Q9Y2T6).
T1 construct: host or cells: CHO-K1
Kind of experiment: PathHunter β-arrestin assay, human GPR55 in CHO-K1 cell line. The experiment is classed as cell-based. As to conditions: 10 μM LPI. On the procedure:
In this assay, agonist-induced activation of GPR55 stimulates binding of β-arrestin to the Pro-link-tagged GPCR and forces complementation of two enzyme fragments, resulting in the formation of an active β-galactosidase enzyme. This interaction leads to an increase in enzyme activity that can be measured using chemiluminescent PathHunter detection reagents. For our application, the GPR55 agonist lysophosphatidylinositol (LPI) was tested from 0.1 nM to 30 μM to increase the relative luminescent signal relative to that of control. […] For the GPR55 antagonism assay, KLS-13019 concentrations ranging from 0.1 nM to 30 μM were tested in the presence of 16 μM LPI. Concentrations of KLS-13019 ranging from 0.1 nM to 30 μM were tested alone for possible effects of agonistic activity on β-arrestin.
A PathHunter β-arrestin assay is shown in FIG. 8 that provides a measure of an antagonist mode assessment of KLS-13019 with a human GPR55 model system (Eurofins). To measure the β-arrestin response to a GPR55 agonist, various concentrations of lysophosphatidylinositol (LPI) were used as shown in the closed circles. […] Based on these findings, 16 μM LPI was incubated with various concentrations of KLS-13019 to test for antagonistic properties (closed inverted triangles). […] All assays were conducted with an N=10.

Experiment [1] deals with GPR55. Put plainly: Neuritic GPR55 immunoreactive area in DRG cultures, 6 h co-treatment with LPIA. The experiment is classed as cell-based, rat. As to conditions: 1 nM LPIA, 6 hours, DRG cultures. An excerpt:
(§1) Because of the recognized importance of sensory neurons in DRG to transmitting peripheral nociception (Krames, 2014) and the reported accumulation of paclitaxel in DRG from models of CIPN (Duggett et al., 2016), the preparation of choice for the in vitro studies to study protection and anti-inflammation was dissociated cultures from rat DRG. DRG cultures derived from embryonic day 18 rats were employed as the primary assay system to study KLS-13019-properties. In brief, DRG were obtained commercially through Brain Bits (Springfield, IL) and cultures prepared with slight modifications to methods previously described (Brenneman et al., 2019). Tissue was dissociated with a papain-based kit from Worthington Biochemical Corporation (Lakewood, NJ). The DRG cells were plated at low density (10,000 cells/well) in a 96-well format and maintained in serum-free medium consisting of Neurobasal Medium supplemented with B27, GlutaMAX (Gibco) and 25 ng/ml Nerve Growth Factor. Poly-D-lysine coated plates (BD Biosciences, Franklin Lakes, NJ) were employed for this culture system. Prior to the initiation of experiments between days 5 and 9 in vitro, a complete change of medium was performed in a working volume of 100 μL.
To assess all antibody-based assays, immunocytochemical methods were employed. The goals for these assays included: 1) to assess the immunoreactive area of our molecular targets (IL-1β, IL-6, GPR55, NLRPA3) with their respective primary antibodies and distinctively labeled secondary antibodies; and 2) to compare the relative responses in both neuronal cell bodies and neurites. Prior to fixation, growth medium was removed and the wells were rinsed one time with 100 μL of DPBS (37° C.). This warm rinse is particularly important to maintain structural stability of neurites. After removal of the DPBS, cultures were fixed for 20 min at room temperature with 50 μL/well of 3.5% formaldehyde (Sigma-Aldrich: 252549) in warm (37° C.) DPBS that contained 5.5 μg/mL of Hoechst 33342 dye (Invitrogen: H3570) to label cell nuclei. […]

In another experiment the test system is NLRP3. Put plainly: Neuritic NLRP3 immunoreactive spot area in hippocampal neurons, LPIA reversal paradigm. The experiment is classed as cell-based, rat. As to conditions: 1 nM LPIA, hippocampal cultures. An excerpt: Tissue was dissociated with a papain-based kit from Worthington Biochemical Corporation (Lakewood, NJ).
(§2) To assess all antibody-based assays, immunocytochemical methods were employed. The goals for these assays included: 1) to assess the immunoreactive area of our molecular targets (IL-1β, IL-6, GPR55, NLRPA3) with their respective primary antibodies and distinctively labeled secondary antibodies; and 2) to compare the relative responses in both neuronal cell bodies and neurites. Prior to fixation, growth medium was removed and the wells were rinsed one time with 100 μL of DPBS (37° C.). This warm rinse is particularly important to maintain structural stability of neurites. After removal of the DPBS, cultures were fixed for 20 min at room temperature with 50 μL/well of 3.5% formaldehyde (Sigma-Aldrich: 252549) in warm (37° C.) DPBS that contained 5.5 μg/mL of Hoechst 33342 dye (Invitrogen: H3570) to label cell nuclei. After removal of the fixative, the cultures were rinsed twice with 100 μL of DPBS and then a permeabilization/blocking buffer containing 5% normal goat serum and 0.3% triton-X100 in DPBS was added to the cultures for 10 min. After removal of the blocking buffer, the cultures were rinsed twice with 100 μL of DPBS and then primary antibodies were added for one-hour incubation at room temperature. Neurons were identified with antiserum to type III beta tubulin (tuj 1) to measure changes in all neuronal parameters. The primary antiserum employed was rabbit anti-rat obtained from Sigma-Aldrich (T2200) and used at 1:200 dilution. The secondary was an Alexa Fluor 488-conjugated Fab fragment of goat anti-rabbit IgG obtained from Life Technologies (A11070) used at 1:600.

The next experiment deals with interleukin-1β. As to conditions: 1 nM LPIA, after one hour of incubation, DRG neurons.
Excerpt: as §1
as §2, with “The secondary was an Alexa Fluor 488-conjugated Fab fragment of goat anti-rabbit IgG obtained from Life Technologies (A11070) used at 1:600.” left out

For a further experiment, the system named is interleukin-6. As to conditions: 1 nM LPIA, after one hour of incubation, DRG neurons.
Excerpt: as §1
as §2, with “The secondary was an Alexa Fluor 488-conjugated Fab fragment of goat anti-rabbit IgG obtained from Life Technologies (A11070) used at 1:600.” left out

Experiment [2] deals with GPR55. As to conditions: DRG neurons.
Excerpt: as §1
as §2, with “The secondary was an Alexa Fluor 488-conjugated Fab fragment of goat anti-rabbit IgG obtained from Life Technologies (A11070) used at 1:600.” left out

T1 sequence (Q9Y2T6 whole entry): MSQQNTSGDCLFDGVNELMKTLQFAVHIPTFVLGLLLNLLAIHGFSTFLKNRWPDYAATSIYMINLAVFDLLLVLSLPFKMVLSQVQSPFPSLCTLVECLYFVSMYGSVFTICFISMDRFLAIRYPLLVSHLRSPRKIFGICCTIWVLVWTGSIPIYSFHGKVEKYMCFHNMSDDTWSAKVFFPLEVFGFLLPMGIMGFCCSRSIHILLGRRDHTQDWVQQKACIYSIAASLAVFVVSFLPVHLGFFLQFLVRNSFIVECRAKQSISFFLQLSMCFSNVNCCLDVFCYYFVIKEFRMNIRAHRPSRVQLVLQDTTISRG

“lysophosphatidylinositol [LPI, reference compound]”: on human GPR55, the “Agonist signal in β-arrestin assay” value was “robust and reproducible signal; also recorded: robust agonist signal”.

For the substance “lysophosphatidylinositol arachidonate [LPIA]”, the “Effect of LPIA on neuritic GPR55 area” value in the experiment with GPR55 [1] was “produced an increase in neuritic GPR55”. In addition, the “Effect of LPIA on neuritic NLRP3 spot area” value with NLRP3 is “increased NLRP3 spot area”. In addition, the “Effect on neuritic IL-1β IR area” value in the experiment with interleukin-1β was “significant increases”. The “Effect on neuritic IL-6 IR area” value in the experiment on interleukin-6 is “significant increases”. In the experiment with GPR55 [2] (preliminary concentration-effect studies), the “Concentration producing a maximum effect on GPR55 IR area” value amounted to 1 nM. Besides, the “Effect on GPR55 IR area” value in the experiment on GPR55 [2] (LPIA, after one hour of incubation) is recorded as “increases in GPR55 IR area”.
